According to patent US9000153B2, “Imidazo[4,5-c]quinolines as DNA-PK inhibitors” (Merck Patent GmbH, priority 2010, dated 2015):
pIC50: −log10 of the molar value.

Target: T1, DNA-PK (Homo sapiens (Human), UniProt P78527)
Assay: not given
Conditions: cited from earlier work

| Structure (SMILES) | pIC50 |
| --- | --- |
| O=c1cc(N2CCOCC2)oc2c(-c3cccc4c3sc3ccccc34)cccc12 [NU-7441] | 7.70 |

Target: T1, DNA-PK
Assay: DNA-PK/biochemical assay (FlashPlate kinase assay)
Conditions: 5 μM ATP, 90 min, room temperature
Experimental: The kinase assay was carried out in streptavidin-coated […] microtitre FlashPlates®. To this end, 1.5 μg of the DNA-PK/protein complex and 100 ng of biotinylated substrate, such as, for example, PESQEAFADLWKK biotin-NH2 (“biotin-DNA-PK peptide”), in a total volume of 36.5 μl (34.25 mM HEPES/KOH, 7.85 mM Tris-HCl, 68.5 mM KCl, 5 μM ATP, 6.85 mM MgCl2, 0.5 mM EDTA, 0.14 mM EGTA, 0.69 mM DTT, pH 7.4), were incubated at room temperature for 90 min with 500 ng of DNA from calf thymus, 0.1 μCi of 33P-ATP and 1.8% of DMSO per well with or without the test compound. The reaction was stopped using 50 μl/well of 200 mM EDTA. After incubation for a further 30 min at room temperature, the liquid was removed. Each well was washed three times with 100 μl of 0.9% sodium chloride solution. A non-specific reaction (blank value) was determined using 10 μM of a proprietary kinase inhibitor. The radioactivity measurement was carried out by means of a TopCount. IC50 values were calculated in RS1 (Kashishian et al. (2003) Molecular Cancer Therapeutics 1257).

| Structure (SMILES) | pIC50 |
| --- | --- |
| COc1cc2ncc3c(c2cc1-c1cccnc1)n(-c1ccc(C#N)cc1F)c(=O)n3C [Compound 33, 3-Fluoro-4-(7-methoxy-3-methyl-2-oxo-8-pyridin-3-yl-2,3-dihydro-imidazo[4,5-c]quinolin-1-yl)-benzonitrile] | > 7.00 |
| COc1ccc(-c2cc3c(cc2OC)ncc2c3n(-c3ccc(C#N)cc3F)c(=O)n2C)cn1 [Compound 34, 3-Fluoro-4-[7-methoxy-8-(6-methoxypyridin-3-yl)-3-methyl-2-oxo-2,3-dihydroimidazo[4,5-c]-quinolin-1-yl)benzonitrile] | > 7.00 |
| COc1cc2ncc3c(c2cc1-c1cnc2ccccc2c1)n(-c1ccc(C#N)cc1F)c(=O)n3C [Compound 35, 3-Fluoro-4-(7-methoxy-3-methyl-2-oxo-8-quinolin-3-yl-2,3-dihydroimidazo[4,5-c]quinolin-1-yl)benzonitrile] | > 7.00 |
| COc1cc2ncc3c(c2cc1-c1cnn(C)c1)n(-c1ccc(C#N)cc1F)c(=O)n3C [Compound 36, 3-Fluoro-4-[7-methoxy-3-methyl-8-(1-methyl-1H-pyrazol-4-yl)-2-oxo-2,3-dihydroimidazo[4,5-c]-quinolin-1-yl]benzonitrile] | > 7.00 |
| COc1cc2ncc3c(c2cc1-c1cn[nH]c1)n(-c1ccc(C#N)cc1F)c(=O)n3C [Compound 37, 3-Fluoro-4-[7-methoxy-3-methyl-2-oxo-8-(1H-pyrazol-4-yl)-2,3-dihydroimidazo[4,5-c]quinolin-1-yl)benzonitrile] | > 7.00 |
| COc1cc2ncc3c(c2cc1-c1ccnn1C)n(-c1ccc(C#N)cc1F)c(=O)n3C [Compound 38, 3-Fluoro-4-[7-methoxy-3-methyl-8-(2-methyl-2H-pyrazol-3-yl)-2-oxo-2,3-dihydroimidazo[4,5-c]-quinolin-1-yl)benzonitrile] | 6.30 to 7.00 |
| COc1cc2ncc3c(c2cc1-c1ccn[nH]1)n(-c1ccc(C#N)cc1F)c(=O)n3C [Compound 39, 3-Fluoro-4-[7-methoxy-3-methyl-2-oxo-8-(2H-pyrazol-3-yl)-2,3-dihydroimidazo[4,5-c]quinolin-1-yl]benzonitrile] | > 7.00 |
| COc1cc2ncc3c(c2cc1-c1cc(C(F)(F)F)nn1C)n(-c1ccc(C#N)cc1F)c(=O)n3C [Compound 40, 3-Fluoro-4-[7-methoxy-3-methyl-8-(2-methyl-5-trifluoromethyl-2H-pyrazol-3-yl)-2-oxo-2,3-dihydro-imidazo[4,5-c]quinolin-1-yl]-benzonitrile] | 6.30 to 7.00 |
| COc1cc2ncc3c(c2cc1/C=C/c1ccsc1)n(-c1ccc(C#N)cc1F)c(=O)n3C [Compound 41, 3-Fluoro-4-[7-methoxy-3-methyl-2-oxo-8-((E)-2-thiophen-3-yl-viniyl)-2,3-dihydroimidazo-[4,5-c]quinolin-1-yl]benzonitrile] | > 7.00 |
| COc1cc2ncc3c(c2cc1CCc1ccsc1)n(-c1ccc(C#N)cc1F)c(=O)n3C [Compound 42, 3-Fluoro-4-[7-methoxy-3-methyl-2-oxo-8-(2-thiophen-3-ylethyl)-2,3-dihydroimidazo[4,5-c]-quinolin-1-yl]benzonitrile] | 6.30 to 7.00 |
| COc1cc2ncc3c(c2cc1/C=C/c1ccccc1)n(-c1ccc(C#N)cc1F)c(=O)n3C [Compound 43, 3-Fluoro-4-[7-methoxy-3-methyl-2-oxo-8-((E)-styryl)-2,3-dihydroimidazo[4,5-c]quinolin-1-yl]benzonitrile] | 6.30 to 7.00 |

Test system: kinases of the PI3K isoenzyme family
Assay: not given
Conditions: cited from earlier work

| Structure (SMILES) | inhibition of PI3K isoenzyme family kinases |
| --- | --- |
| CCN1CCN(CC(=O)Nc2ccc(-c3cccc4c(=O)cc(N5CCOCC5)oc34)c3sc4ccccc4c23)CC1 [KU-0060648] | potently inhibited |

Test system: mammal cells
Assay: not given
Conditions: in cellular terms; cited from earlier work

| Structure (SMILES) | increase in sensitivity to ionising irradiation |
| --- | --- |
| O=c1cc(N2CCOCC2)oc2c(-c3ccccc3)cccc12 [LY294002] | only a weak increase |
